Tests used:
11 β-HSD type 1 = target: T1, 11 β-HSD type 1 (Rattus norvegicus, UniProt P16232); assay: 11 β-HSD type 1 inhibition, rat liver homogenate, conversion E to F (radiometric TLC); format: biochemical; conditions: read-out: % inhibition of 11β HSD1 @ 10 μM, 10 μM, typical sd ± 5%, means n=2
T1 construct: Both the kidneys and livers were homogenised on ice in PBS-sucrose buffer; tissue Harlan Olac (rats); host or cells: Wistar rat liver homogenate supernatant
Experimental: (§1) Enzymes—Rat livers and rat kidneys were obtained from normal Wistar rats (Harlan Olac, Bicester, Oxon, UK). Both the kidneys and livers were homogenised on ice in PBS-sucrose buffer (1 g/10 ml) using an Ultra-Turrax. After the livers and kidneys were homogenised the homogenate was centrifuged for five minutes at 4000 rpm. The supernatant obtained was removed and stored in glass vials at −20° C. The amount of protein per μl of rat liver and kidney cytosol was determined using the Bradford method.
11 β-HSD type 1 is the enzyme responsible for the conversion E to F and this type of enzyme is present in rat liver. The substrate solution used in this assay contained 70,000 cpm/ml ^3H-E in PBS-sucrose and 0.5 μM of unlabelled E and co-factor NADPH (9 mg/10 ml of substrate solution). 1 ml of the substrate solution and the different amounts of rat liver homogenate was added to all tubes.
The amount of rat liver homogenate needed for an assay was determined by incubating the substrate solution with 25, 50, 100 and 150 μl for 30, 60, 90 and 120 minutes at 37° C. in a water bath with the tubes being mechanically shaken. After the incubation 50 μL of recovery solution was added, containing about 8,000 cpm/50 μL of ^14C—F and 50 μg/50 μL of unlabelled F for visualising the spot on the TLC-plate, to correct for the losses made in the next two steps. F was then extracted from the aqueous phase with 4 ml of ether (2×30 sec cycle, vortex mix). The aqueous phase was then frozen using dry-ice and the organic layer was decanted and poured into smaller tubes and evaporated. 6 drops of ether were then added to the small tubes to re-dissolve the residue which was transferred to an aluminium thin layer chromatography plate (TLC-plate). The TLC-plate was developed in a TLC tank under saturated conditions. The solvent system used was chloroform:methanol 9:1 (v/v). The F spots on the TLC-plate were visualised under UV-light and cut out from the TLC-plate (Rf=0.45). The spots from the TLC-plate were then put into scintillation vials and 0.5 ml of methanol was added to all vials to elute the radioactivity from the TLC-plate for 5 minutes. 10 ml of Ecoscint was added to the scintillation vials and they were put into the scintillation counter to count amount of product formed.
(§2) In these assays the influence of different inhibitors on the 11 β-HSD activity both in reductive (type 1) and oxidative (type 2) directions were assessed. In the reductive direction E is the substrate and F the product and visa versa in the case of oxidation. The method described here is for the oxidative direction.
The substrate solution contained about 50,000 cpm/ml ^3H—F in PBS-sucrose and 0.5 μM F. 1 ml of the substrate solution was added to each tube, the inhibitors were also added, at a 10 μM concentration, to each tube except to the “control” and “blank” tubes. 150 μL was added to all tubes except to the blanks, this was done to correct for the amount of ^3H—F spontaneously formed. The tubes were incubated for 60 minutes in a mechanically shaken water bath at 37° C. The amount of kidney liver homogenate and incubation time used resulted from the enzyme- and time-dependency assay. After incubation 50 μL of recovery was added to correct for the losses made in the next steps, containing 5000 cpm/50 μL of ^14C-E and 50 μg/50 μL of unlabelled E (to visualise the spot on the TLC-plate). The aqueous mixture was then extracted with 4 ml of ether (2×30 sec cycle, vortex mix). After freezing the aqueous phase, the ether (upper) layer was decanted into smaller tubes and evaporated at 45° C. until completely dry. The residue was then re-dissolved in 6 drops of ether and transferred to a TLC-plate. The TLC-plate was developed in chloroform:methanol (9:1 v/v) solvent system, the TLC-plate ran for about 90 minutes until the solvent front had moved about 18 cm. The position of the product E was visualised under UV-light and cut out from the TLC-plate and put into scintillation vials. […]

11 β-HSD type 2 = target: T2, 11 β-HSD type 2 (Rattus norvegicus, UniProt P50233); assay: 11 β-HSD type 2 inhibition, rat kidney homogenate, conversion F to E (radiometric TLC); format: biochemical; conditions: read-out: % inhibition of 11β HSD2 @ 10 μM, typical sd ± 5%, means n=2
T2 construct: Both the kidneys and livers were homogenised on ice in PBS-sucrose buffer; tissue Harlan Olac (rats); host or cells: Wistar rat kidney homogenate supernatant
T2 sequence (P50233 1-400): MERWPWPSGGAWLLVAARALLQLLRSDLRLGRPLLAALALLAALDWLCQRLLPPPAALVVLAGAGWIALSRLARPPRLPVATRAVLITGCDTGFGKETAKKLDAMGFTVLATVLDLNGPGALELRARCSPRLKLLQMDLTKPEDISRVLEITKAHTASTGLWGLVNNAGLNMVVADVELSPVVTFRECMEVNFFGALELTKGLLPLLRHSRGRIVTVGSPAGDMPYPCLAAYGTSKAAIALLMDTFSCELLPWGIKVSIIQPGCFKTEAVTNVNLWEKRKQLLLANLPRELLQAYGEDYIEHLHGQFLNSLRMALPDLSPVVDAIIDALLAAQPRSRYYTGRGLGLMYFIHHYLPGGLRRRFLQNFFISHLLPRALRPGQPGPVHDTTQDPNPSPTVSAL
Experimental: as §1
The same procedure was used for the 11 β-HSD type 2 assay, the conversion F to E, to determine the amount of rat kidney to be used and the incubation time. Except this time the substrate solution contained ^3H—F and unlabelled F and the recovery contained ^14C-E and unlabelled E and cortisone has a Rf value of 0.65 on the TLC-plate.
as §2
The substrate solution contained about 50,000 cpm/ml ^3H—F in PBS-sucrose and 0.5 μM F. 1 ml of the substrate solution was added to each tube, the inhibitors were also added, at a 10 μM concentration, to each tube except to the “control” and “blank” tubes. 150 μL was added to all tubes except to the blanks, this was done to correct for the amount of ^3H—F spontaneously formed. The tubes were incubated for 60 minutes in a mechanically shaken water bath at 37° C. The amount of kidney liver homogenate and incubation time used resulted from the enzyme- and time-dependency assay. After incubation 50 μL of recovery was added to correct for the losses made in the next steps, containing 5000 cpm/50 μL of ^14C-E and 50 μg/50 μL of unlabelled E (to visualise the spot on the TLC-plate). The aqueous mixture was then extracted with 4 ml of ether (2×30 sec cycle, vortex mix). After freezing the aqueous phase, the ether (upper) layer was decanted into smaller tubes and evaporated at 45° C. until completely dry. The residue was then re-dissolved in 6 drops of ether and transferred to a TLC-plate. The TLC-plate was developed in chloroform:methanol (9:1 v/v) solvent system, the TLC-plate ran for about 90 minutes until the solvent front had moved about 18 cm. The position of the product E was visualised under UV-light and cut out from the TLC-plate and put into scintillation vials. Radioactivity was eluted over 5 minutes with 0.5 ml methanol. 0.5 ml of PBS-sucrose and 10 ml of Ecoscint were then added and vortex mixed before counting in the scintillation counter. Before counting the samples, two total activity vials were prepared. These contained 0.5 ml of the substrate solution, 50 μL of the recovery, 0.5 ml of methanol and 10 ml of Ecoscint. These two total activity vials were needed to determine the amount of ^14C-E and ^3H—F added in the beginning to make the calculations.
To look at the percentage of inhibition four different concentrations, 1, 5, 10 and 20 μM, were used. The method for both the rat liver, type 1 the reductive, and rat kidney, type 2 the oxidative, stay the same throughout the entire experiment.
In this experiment the amount of rat liver homogenate and rat kidney homogenate added to each tube and the incubation time was determined. […] After drawing the graphs the optimal amount of rat liver cytosol and rat kidney cytosol and both their incubation times were selected. One important rule when selecting both variables, to select an amount of rat liver and rat kidney and incubation time on a linear part of the graph. This is done to avoid fluctuations in enzyme activity. The amount of rat liver cytosol selected was 25 μL and 90 minutes of incubation time, the amount of rat kidney cytosol selected was 150 μL and 60 minutes of incubation time. […]

T1 sequence (P16232 whole entry): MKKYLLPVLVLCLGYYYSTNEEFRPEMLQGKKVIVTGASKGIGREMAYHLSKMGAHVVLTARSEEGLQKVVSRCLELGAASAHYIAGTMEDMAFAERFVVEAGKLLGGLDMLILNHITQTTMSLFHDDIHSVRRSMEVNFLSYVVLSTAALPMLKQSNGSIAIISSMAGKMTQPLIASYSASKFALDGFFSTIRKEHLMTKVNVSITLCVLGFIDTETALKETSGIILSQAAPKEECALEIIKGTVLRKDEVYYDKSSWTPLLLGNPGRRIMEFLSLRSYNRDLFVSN

melting point	SMILES	inhibition at 10 µM (11 β-HSD type 1)	inhibition at 10 µM (11 β-HSD type 2)
	COc1ccc(S(=O)(=O)Nc2ccc3sc(C)nc3c2)cc1OC [compound 707]	21%	11%
	Cc1c(Cl)cccc1S(=O)(=O)Nc1ccc2ncsc2c1 [compound 750]	4%	10%
	CC(=O)Nc1ccc(S(=O)(=O)Nc2ccc3sc(C)nc3c2)cc1 [compound 711]	37%	6%
	Cc1nc2cc(N(S(=O)(=O)c3ccccc3C#N)S(=O)(=O)c3ccccc3C#N)ccc2s1 [compound 731]	45%	12%
	Cc1nc2cc(NS(=O)(=O)c3c(C)c(C)c4c(c3C)CCC(C)(C)O4)ccc2s1 [compound 713]	26%	3%
	CCN(CC)C(=O)CSc1nc2ccc(NS(=O)(=O)c3cccc(Cl)c3C)cc2s1 [compound 755]	21%	8%
	COCCSc1nc2ccc(NS(=O)(=O)c3cccc(Cl)c3C)cc2s1 [compound 754]	20%	6%
	Cc1nc2cc(NS(=O)(=O)c3c(C)c(C)cc(C)c3C)ccc2s1 [compound 706]	29%	7%
	Cc1c(Cl)cccc1S(=O)(=O)Nc1ccc2[nH]c(=O)sc2c1 [compound 753]	8%	2%
	CCOC(=O)CSc1nc2ccc(NS(=O)(=O)c3cccc(Cl)c3C)cc2s1 [compound 752]	5%	1%
254 to 256 °C	Cc1c(Cl)cccc1S(=O)(=O)Nc1ccc2c(c1)nc(C)n2-c1ccccc1		
213 to 214.5 °C	Cc1c(Cl)cccc1S(=O)(=O)Nc1ccc2nc(C)n(CCO)c2c1		
	Cc1nc2cc(NS(=O)(=O)c3c(F)c(F)c(F)c(F)c3F)ccc2s1 [compound 712]	24%	3%
	CC(=O)c1ccccc1S(=O)(=O)N(c1ccc2sc(C)nc2c1)S(=O)(=O)c1ccccc1C(C)=O [compound 730]	32%	9%
245 to 247 °C	Cc1c(Cl)cccc1S(=O)(=O)Nc1ccc2c(c1)nc(C)n2CCO		

SMILES	melting point	inhibition at 10 µM (11 β-HSD type 1)	inhibition at 10 µM (11 β-HSD type 2)
Cc1c(Cl)cccc1S(=O)(=O)Nc1ccc2nc(C)n(C)c2c1	265 to 266 °C		

From patent US7786152B2, “Compound” (priority 2002, dated 2010)
